Experimental findings from ChEMBL document CHEMBL1150976, “The selectivity of protein kinase inhibitors: a further update” (Biochem J, 2007) are described below.

In assay [1] the target is Casein kinase II (Homo sapiens) (UniProt P67870+P68400+P19784). In words: Percentage CK2 activity remaining in the presence of 0.01uM inhibitor. It is filed as protein-complex assay.
Assay [2] concerns the target Serine/threonine-protein kinase PAK 4 (Homo sapiens, UniProt O96013). In words: Percentage PAK4 activity remaining in the presence of 0.01uM inhibitor.
Assay [3] concerns the target T1, Eukaryotic elongation factor 2 kinase (Homo sapiens) (UniProt O00418).
T1 sequence (whole entry): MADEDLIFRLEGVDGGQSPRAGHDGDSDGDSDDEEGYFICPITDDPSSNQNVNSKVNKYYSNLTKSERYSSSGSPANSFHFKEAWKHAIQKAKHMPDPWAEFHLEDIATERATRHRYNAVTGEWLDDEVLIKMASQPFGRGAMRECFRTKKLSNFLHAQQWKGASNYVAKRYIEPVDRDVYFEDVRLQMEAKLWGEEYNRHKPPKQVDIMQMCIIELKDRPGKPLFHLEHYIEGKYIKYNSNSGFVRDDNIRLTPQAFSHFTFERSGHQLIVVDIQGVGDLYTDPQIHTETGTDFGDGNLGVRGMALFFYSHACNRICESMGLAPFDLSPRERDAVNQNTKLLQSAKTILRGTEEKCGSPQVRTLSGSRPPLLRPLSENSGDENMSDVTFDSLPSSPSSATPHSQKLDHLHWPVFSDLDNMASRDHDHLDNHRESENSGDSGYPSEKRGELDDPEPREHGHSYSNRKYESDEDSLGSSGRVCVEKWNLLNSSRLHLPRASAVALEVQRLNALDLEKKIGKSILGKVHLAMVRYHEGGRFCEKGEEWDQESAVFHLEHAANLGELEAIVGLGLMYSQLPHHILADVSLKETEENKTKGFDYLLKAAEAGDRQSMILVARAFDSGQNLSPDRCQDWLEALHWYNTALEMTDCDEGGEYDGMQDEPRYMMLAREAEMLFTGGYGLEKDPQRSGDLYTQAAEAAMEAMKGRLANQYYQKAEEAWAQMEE
In words: Percentage EF2K activity remaining in the presence of 0.01uM inhibitor.

In assay [4] the target is Mitogen-activated protein kinase 3 (Homo sapiens) (UniProt P27361). In words: Percentage ERK1 activity remaining in the presence of 0.01uM inhibitor.
Assay [5] deals with Maternal embryonic leucine zipper kinase (Homo sapiens) (UniProt Q14680). In words: Percentage MELK activity remaining in the presence of 0.01uM inhibitor.
Assay [6] addresses T2, Serine/threonine-protein kinase D1 (Homo sapiens) (UniProt Q15139).
T2 sequence (whole entry): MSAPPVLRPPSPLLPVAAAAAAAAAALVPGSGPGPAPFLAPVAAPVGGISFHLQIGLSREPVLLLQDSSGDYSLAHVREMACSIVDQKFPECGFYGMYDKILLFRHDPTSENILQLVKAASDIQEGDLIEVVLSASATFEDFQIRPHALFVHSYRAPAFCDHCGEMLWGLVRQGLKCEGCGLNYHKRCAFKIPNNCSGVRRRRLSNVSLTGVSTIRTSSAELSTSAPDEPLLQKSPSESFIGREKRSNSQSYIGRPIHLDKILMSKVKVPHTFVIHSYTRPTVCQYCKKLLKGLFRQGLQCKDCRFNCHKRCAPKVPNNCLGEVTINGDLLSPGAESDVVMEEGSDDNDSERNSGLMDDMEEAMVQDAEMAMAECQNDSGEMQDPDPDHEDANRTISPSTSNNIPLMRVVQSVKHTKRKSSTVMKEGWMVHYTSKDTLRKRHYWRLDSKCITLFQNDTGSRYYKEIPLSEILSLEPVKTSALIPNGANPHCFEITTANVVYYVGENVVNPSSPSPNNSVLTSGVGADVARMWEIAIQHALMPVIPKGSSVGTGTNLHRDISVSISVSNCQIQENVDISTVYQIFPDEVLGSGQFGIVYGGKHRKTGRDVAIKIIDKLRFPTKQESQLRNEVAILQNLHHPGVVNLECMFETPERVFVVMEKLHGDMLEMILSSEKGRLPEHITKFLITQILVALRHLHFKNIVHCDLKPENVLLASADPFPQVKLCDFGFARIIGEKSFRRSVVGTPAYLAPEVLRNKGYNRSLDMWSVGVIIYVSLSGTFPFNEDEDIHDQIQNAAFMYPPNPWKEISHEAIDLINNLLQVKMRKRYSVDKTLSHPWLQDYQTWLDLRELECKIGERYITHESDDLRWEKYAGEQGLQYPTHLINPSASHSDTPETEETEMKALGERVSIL
In words: Percentage PKD1 activity remaining in the presence of 0.01uM inhibitor.

For assay [7], the target named is Serine/threonine-protein kinase Nek7 (Homo sapiens) (UniProt Q8TDX7). In words: Percentage NEK7 activity remaining in the presence of 0.01uM inhibitor.
The target in assay [8] is Proto-oncogene tyrosine-protein kinase Src (Gallus gallus) (UniProt P00523). In words: Percentage Src activity remaining in the presence of 0.01uM inhibitor.
The target in assay [9] is T3, Dual specificity tyrosine-phosphorylation-regulated kinase 2 (Homo sapiens) (UniProt Q92630).
T3 sequence (whole entry): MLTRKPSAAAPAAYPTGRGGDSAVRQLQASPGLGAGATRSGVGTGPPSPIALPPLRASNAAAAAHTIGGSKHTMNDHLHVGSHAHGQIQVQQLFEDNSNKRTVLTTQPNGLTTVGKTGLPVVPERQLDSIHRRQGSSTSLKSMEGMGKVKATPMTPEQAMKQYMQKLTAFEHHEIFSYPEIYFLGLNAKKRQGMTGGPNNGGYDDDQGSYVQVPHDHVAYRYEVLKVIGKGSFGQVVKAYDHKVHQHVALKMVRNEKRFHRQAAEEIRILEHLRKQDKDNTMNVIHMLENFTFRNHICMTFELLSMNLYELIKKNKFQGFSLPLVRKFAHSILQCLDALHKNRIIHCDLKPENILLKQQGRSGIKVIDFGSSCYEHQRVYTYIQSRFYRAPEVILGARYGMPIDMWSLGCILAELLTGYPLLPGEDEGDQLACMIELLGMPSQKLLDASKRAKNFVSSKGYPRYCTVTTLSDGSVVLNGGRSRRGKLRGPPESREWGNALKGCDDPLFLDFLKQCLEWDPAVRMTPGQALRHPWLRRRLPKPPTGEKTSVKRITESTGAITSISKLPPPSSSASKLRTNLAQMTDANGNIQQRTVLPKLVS
In words: Percentage DYRK2 activity remaining in the presence of 0.01uM inhibitor.

In assay [10] the target is Ribosomal protein S6 kinase alpha-1 (Homo sapiens) (UniProt Q15418). In words: Percentage RSK1 activity remaining in the presence of 0.01uM inhibitor.
The target in assay [11] is Calcium/calmodulin-dependent protein kinase kinase 1 (Homo sapiens) (UniProt Q8N5S9). In words: Percentage CaMKKalpha activity remaining in the presence of 0.01uM inhibitor.
Chain of Calcium/calmodulin-dependent protein kinase kinase 1 (Homo sapiens) (Q8N5S9 whole entry, looked up): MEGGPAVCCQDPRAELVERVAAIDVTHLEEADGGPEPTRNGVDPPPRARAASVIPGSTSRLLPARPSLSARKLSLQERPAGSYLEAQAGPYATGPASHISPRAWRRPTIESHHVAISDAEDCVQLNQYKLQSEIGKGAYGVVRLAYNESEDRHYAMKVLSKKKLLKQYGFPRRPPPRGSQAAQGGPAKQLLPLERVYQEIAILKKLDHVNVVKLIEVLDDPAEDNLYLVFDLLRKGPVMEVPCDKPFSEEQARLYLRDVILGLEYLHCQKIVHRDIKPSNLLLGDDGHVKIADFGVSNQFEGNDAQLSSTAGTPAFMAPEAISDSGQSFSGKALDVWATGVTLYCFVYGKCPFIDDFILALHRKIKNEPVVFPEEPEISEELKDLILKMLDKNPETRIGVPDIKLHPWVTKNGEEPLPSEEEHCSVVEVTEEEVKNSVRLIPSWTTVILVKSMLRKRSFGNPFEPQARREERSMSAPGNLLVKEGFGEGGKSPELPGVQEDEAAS

Chain of Ribosomal protein S6 kinase alpha-1 (Homo sapiens) (Q15418 whole entry): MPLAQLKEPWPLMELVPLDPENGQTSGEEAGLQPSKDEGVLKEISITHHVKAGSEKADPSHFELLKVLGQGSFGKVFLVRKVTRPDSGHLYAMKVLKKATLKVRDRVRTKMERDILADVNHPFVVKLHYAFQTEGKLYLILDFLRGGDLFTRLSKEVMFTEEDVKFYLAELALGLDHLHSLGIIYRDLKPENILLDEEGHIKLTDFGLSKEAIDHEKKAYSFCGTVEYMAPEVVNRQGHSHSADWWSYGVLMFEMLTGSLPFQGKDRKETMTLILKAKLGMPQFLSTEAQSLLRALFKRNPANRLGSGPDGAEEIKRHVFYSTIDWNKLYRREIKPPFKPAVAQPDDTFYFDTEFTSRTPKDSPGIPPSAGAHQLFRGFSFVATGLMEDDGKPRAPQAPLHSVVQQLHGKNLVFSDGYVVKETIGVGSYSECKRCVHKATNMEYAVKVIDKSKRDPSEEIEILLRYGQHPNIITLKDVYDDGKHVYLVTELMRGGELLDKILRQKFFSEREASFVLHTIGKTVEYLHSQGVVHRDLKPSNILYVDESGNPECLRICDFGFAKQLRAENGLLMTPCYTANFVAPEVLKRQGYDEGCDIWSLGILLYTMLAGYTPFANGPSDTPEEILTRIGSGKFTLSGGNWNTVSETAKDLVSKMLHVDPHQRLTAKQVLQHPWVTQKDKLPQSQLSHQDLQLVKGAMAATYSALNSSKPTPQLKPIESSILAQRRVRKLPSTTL
Chain of Maternal embryonic leucine zipper kinase (Homo sapiens) (Q14680 whole entry, looked up): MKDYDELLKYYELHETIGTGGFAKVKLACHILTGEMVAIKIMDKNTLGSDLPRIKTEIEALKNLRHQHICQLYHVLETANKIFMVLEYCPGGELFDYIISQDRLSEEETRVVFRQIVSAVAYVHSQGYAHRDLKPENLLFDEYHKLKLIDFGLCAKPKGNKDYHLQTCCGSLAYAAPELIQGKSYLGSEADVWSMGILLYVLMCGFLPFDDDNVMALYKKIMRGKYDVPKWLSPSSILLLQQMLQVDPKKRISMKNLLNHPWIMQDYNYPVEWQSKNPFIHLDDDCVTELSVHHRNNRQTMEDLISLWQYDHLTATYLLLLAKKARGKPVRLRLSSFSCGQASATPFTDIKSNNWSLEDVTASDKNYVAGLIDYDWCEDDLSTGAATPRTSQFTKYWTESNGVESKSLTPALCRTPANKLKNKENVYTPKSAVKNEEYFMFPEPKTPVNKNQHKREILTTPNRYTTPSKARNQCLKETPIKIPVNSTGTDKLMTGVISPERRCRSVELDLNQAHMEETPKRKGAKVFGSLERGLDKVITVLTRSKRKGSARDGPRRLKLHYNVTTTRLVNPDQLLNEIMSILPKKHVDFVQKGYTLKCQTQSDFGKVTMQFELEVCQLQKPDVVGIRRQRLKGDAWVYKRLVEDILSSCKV
Chain of Mitogen-activated protein kinase 3 (Homo sapiens) (P27361 whole entry): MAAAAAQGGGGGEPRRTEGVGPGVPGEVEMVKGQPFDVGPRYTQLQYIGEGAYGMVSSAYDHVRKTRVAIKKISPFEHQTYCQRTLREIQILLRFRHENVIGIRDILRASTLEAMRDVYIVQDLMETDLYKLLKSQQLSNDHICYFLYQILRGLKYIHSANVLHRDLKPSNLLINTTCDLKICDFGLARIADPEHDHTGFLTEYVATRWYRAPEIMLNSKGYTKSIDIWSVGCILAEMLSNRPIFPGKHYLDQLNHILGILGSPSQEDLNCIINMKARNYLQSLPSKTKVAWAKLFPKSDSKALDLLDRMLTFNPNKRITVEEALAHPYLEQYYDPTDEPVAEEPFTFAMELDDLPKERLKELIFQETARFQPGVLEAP
Chain of Serine/threonine-protein kinase PAK 4 (O96013 whole entry, looked up): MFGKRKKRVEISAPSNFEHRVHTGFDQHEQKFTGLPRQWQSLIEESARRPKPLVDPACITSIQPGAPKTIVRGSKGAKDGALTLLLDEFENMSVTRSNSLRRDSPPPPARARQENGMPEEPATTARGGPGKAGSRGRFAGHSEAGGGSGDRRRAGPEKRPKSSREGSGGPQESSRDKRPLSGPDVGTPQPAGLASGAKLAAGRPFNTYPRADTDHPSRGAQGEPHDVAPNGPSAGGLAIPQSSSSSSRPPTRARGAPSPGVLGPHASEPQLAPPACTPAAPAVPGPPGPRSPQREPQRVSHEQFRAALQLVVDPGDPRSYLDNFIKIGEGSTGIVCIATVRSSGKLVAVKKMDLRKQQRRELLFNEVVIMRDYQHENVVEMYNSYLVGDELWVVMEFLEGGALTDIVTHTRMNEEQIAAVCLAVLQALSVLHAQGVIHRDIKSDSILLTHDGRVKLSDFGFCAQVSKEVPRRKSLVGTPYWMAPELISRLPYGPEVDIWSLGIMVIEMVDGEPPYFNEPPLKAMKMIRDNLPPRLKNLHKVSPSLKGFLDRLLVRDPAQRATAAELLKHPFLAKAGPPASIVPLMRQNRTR
Chain of Serine/threonine-protein kinase Nek7 (Homo sapiens) (Q8TDX7 whole entry, looked up): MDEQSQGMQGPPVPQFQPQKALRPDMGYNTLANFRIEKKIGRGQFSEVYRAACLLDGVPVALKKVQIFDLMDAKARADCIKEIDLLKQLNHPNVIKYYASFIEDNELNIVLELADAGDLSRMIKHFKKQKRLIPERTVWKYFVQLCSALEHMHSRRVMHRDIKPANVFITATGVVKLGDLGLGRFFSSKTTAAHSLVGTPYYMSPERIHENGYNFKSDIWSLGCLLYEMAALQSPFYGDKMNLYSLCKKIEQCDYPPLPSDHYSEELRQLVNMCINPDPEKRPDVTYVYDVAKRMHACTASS

Take `O=C(NCCCNc1nc(Nc2cccc(NC(=O)N3CCCC3)c2)ncc1I)c1cccs1`: the Activity is 93% in assay [1]; 91% in assay [2]; 98% in assay [3]; 82% in [4]; 95% in assay [5]; 84% in [6]. For the same molecule, the Activity in assay [7] is 111%; in assay [8] it was 90%; in assay [9] it was 105%; in assay [10], 100%; in [11], 86%.
Regarding `CN[C@@H]1C[C@H]2O[C@@](C)([C@@H]1OC)n1c3ccccc3c3c4c(c5c6ccccc6n2c5c31)C(=O)N[C@H]4O` (stereo in doubt), the Activity was 92% in assay [1]; 33% in assay [2] (filed as antagonist); 105% in [3]; 112% in assay [4]; 53% in assay [5]; 83% in assay [6]. The Activity was 99% in assay [7]; 76% in assay [8]; 92% in assay [9]; 25% in assay [10] (filed as antagonist); 58% in assay [11].
As to `Cc1n[nH]c2ccc(-c3cncc(OC[C@@H](N)Cc4c[nH]c5ccccc45)c3)cc12`, the Activity in assay [1] was found to be 96%; in assay [2], 99%; in assay [3], 93%; in assay [4] it was 77%; in [5], 96%; in [6] it was 63%. For the same molecule, the Activity worked out at 86% in assay [7]; 91% in [8]; 79% in assay [9]; 78% in assay [10]; 112% in [11].
